pEC50: −log10 of the molar value.
Experiments:
[1] = target: T1, Probable G-protein coupled receptor 139 (Homo sapiens, UniProt Q6DWJ6); assay: Agonist activity at human GPR139 expressed in CHO-K1 cells assessed as increase in calcium flux by calcium 5 dye based FLIPR assay; format: functional, cell-based
T1 sequence (Q6DWJ6 whole entry): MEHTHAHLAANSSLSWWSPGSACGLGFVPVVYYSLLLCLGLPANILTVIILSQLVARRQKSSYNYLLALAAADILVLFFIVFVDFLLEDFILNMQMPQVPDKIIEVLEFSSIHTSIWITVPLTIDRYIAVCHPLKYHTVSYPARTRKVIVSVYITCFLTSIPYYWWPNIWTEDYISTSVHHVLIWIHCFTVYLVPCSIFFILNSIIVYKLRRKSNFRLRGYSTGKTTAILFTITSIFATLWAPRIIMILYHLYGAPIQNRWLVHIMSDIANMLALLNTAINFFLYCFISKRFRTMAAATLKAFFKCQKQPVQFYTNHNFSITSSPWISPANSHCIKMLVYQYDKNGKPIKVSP

[2] = target: T2, Probable G-protein coupled receptor 139 (Rattus norvegicus) (UniProt P0C0W8); assay: Agonist activity at rat GPR139 expressed in CHO-K1 cells assessed as increase in calcium flux by calcium 5 dye based FLIPR assay relative to JNJ63533054; format: cell-based
T2 sequence (whole entry): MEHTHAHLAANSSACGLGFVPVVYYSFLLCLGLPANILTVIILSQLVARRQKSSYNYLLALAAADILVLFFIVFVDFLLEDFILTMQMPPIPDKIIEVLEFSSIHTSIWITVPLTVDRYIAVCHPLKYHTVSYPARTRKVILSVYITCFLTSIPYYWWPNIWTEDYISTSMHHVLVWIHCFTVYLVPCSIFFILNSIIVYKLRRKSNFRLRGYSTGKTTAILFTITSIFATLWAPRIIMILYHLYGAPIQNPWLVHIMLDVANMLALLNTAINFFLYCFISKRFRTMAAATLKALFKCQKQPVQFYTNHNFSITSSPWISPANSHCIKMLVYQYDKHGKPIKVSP

[3] = target: T3, Probable G-protein coupled receptor 139 (Homo sapiens) (UniProt Q6DWJ6); assay: Agonist activity at human GPR139 expressed in CHO-K1 cells assessed as induction of beta-arrestin 2 recruitment incubated for 90 mins by PathHunter assay relative to JNJ63533054; format: cell-based
T3 sequence (whole entry): T1 sequence (Q6DWJ6 whole entry)

[4] = target: T1, Probable G-protein coupled receptor 139; assay: Agonist activity at human GPR139 expressed in CHO-K1 cells assessed as induction of beta-arrestin 2 recruitment incubated for 90 mins by PathHunter assay; format: cell-based
[5] = target: T4, Probable G-protein coupled receptor 139 (Rattus norvegicus, UniProt P0C0W8); assay: Agonist activity at rat GPR139 expressed in CHO-K1 cells assessed as increase in calcium flux by calcium 5 dye based FLIPR assay; format: cell-based
T4 sequence (P0C0W8 whole entry): T2 sequence (whole entry)

[6] = target: T3, Probable G-protein coupled receptor 139 (Homo sapiens); assay: Agonist activity at human GPR139 expressed in CHO-K1 cells assessed as increase in calcium flux by calcium 5 dye based FLIPR assay relative to JNJ63533054; format: functional, cell-based

| Compound | Emax ([2]; filed as agonist) | Emax ([3]; filed as agonist) | pEC50 ([4]; cho-k1) | Emax ([6]; filed as agonist) | pEC50 ([1]; cho-k1) | pEC50 ([5]; cho-k1) | further results |
| --- | --- | --- | --- | --- | --- | --- | --- |
| Cc1ccn2c(=O)n(CC(=O)N[C@@H](C)c3ccc(OC(F)(F)F)cc3)nc2c1 | 50% | > 80% | 9.00 | > 80% | – | – | pEC50 [1]: > 9.00; pEC50 [5]: > 9.00 |
| O=C(Cn1nc2ccc(F)cn2c1=O)NC1(c2ccc(Cl)cc2)CC1 | – | – | – | > 80% | 8.00 | – | Emax [2]: 25%; Emax [3]: 25%; pEC50 [4]: ≤ 7.00; pEC50 [5]: ≤ 7.00 |
| O=C(Cn1nc2cccnn2c1=O)NC1(c2cccc(Cl)c2)CC1 | 50% | – | – | 50% | – | – | pEC50 [1]: ≤ 7.00; Emax [3]: < 25%; pEC50 [4]: ≤ 7.00; pEC50 [5]: ≤ 7.00 |
| C[C@H](NC(=O)Cn1nc2ncccn2c1=O)c1ccc(OC(F)(F)F)c(F)c1 | – | 25% | – | > 80% | 9.00 | – | Emax [2]: < 25%; pEC50 [4]: ≤ 7.00; pEC50 [5]: ≤ 7.00 |
| Cc1ccc2nn(CC(=O)N[C@@H](C)c3ccc(Cl)cc3)c(=O)n2n1 | 50% | – | 9.00 | > 80% | 9.00 | 9.00 | Emax [3]: 25% |
| C[C@H](NC(=O)Cn1nc2cc(C#N)ccn2c1=O)c1ccc(Cl)c(F)c1 | 50% | 50% | 9.00 | > 80% | 9.00 | 9.00 | – |
| C[C@H](NC(=O)Cn1nc2ccc(F)cn2c1=O)c1ccc(OC(F)(F)F)cc1 | 50% | 50% | 9.00 | > 80% | – | 9.00 | pEC50 [1]: > 9.00 |
| Cc1ccnc2nn(CC(=O)N[C@@H](C)c3ccc(Cl)c(F)c3)c(=O)n12 | 50% | 50% | 9.00 | > 80% | – | 8.00 | pEC50 [1]: > 9.00 |
| Cc1ccc([C@H](C)NC(=O)Cn2nc3cccnn3c2=O)cc1F | 50% | 50% | 8.00 | > 80% | 9.00 | 9.00 | – |
| CC(C(=O)N[C@@H](C)c1ccc(Cl)c(F)c1)n1nc2ncccn2c1=O (stereo in doubt; form 1) [listing 1 of 2 here] | – | – | – | – | 9.00 | 8.00 | pEC50 [4]: ≤ 7.00 |
| C[C@H](NC(=O)Cn1nc2c(N3CCC34CNC4)cccn2c1=O)c1ccc(Cl)c(F)c1 | > 80% | – | – | > 80% | 9.00 | 8.00 | Emax [3]: 25%; pEC50 [4]: ≤ 7.00 |
| CC(C(=O)N[C@@H](C)c1ccc(Cl)c(F)c1)n1nc2ccccn2c1=O (stereo in doubt; form 1) [listing 1 of 2 here] | 50% | > 80% | – | > 80% | – | – | – |
| CC(C(=O)N[C@@H](C)c1ccc(Cl)c(F)c1)n1nc2cccnn2c1=O (stereo in doubt; I-6-2) [listing 1 of 2 here] | – | – | 8.00 | – | 9.00 | 9.00 | – |
| CC(C(=O)N[C@@H](C)c1ccc(Cl)c(F)c1)n1nc2ccccn2c1=O (stereo in doubt; form 2) [listing 1 of 2 here] | – | 50% | – | > 80% | – | – | Emax [2]: 25% |
| Cc1ccc([C@H](C)NC(=O)C(C)n2nc3ccccn3c2=O)cc1 (stereo in doubt; form 3) | – | 50% | – | > 80% | – | – | Emax [2]: 25% |
| C[C@H](NC(=O)Cn1nc2c(C(F)(F)F)ccnn2c1=O)c1ccc(Cl)c(F)c1 | – | 50% | 9.00 | > 80% | – | – | pEC50 [1]: > 9.00 |
| CC(C(=O)N[C@@H](C)c1ccc(Cl)c(F)c1)n1nc2cccnn2c1=O (stereo in doubt; I-6-1) [listing 1 of 2 here] | – | – | – | – | 8.00 | 8.00 | pEC50 [4]: ≤ 7.00 |
| COc1ccnn2c(=O)n(CC(=O)N[C@@H](C)c3ccc(Cl)c(F)c3)nc12 | – | > 80% | 9.00 | > 80% | – | – | pEC50 [1]: > 9.00 |
| O=C(Cn1nc2cccnn2c1=O)N[C@H](c1ccc(Cl)c(F)c1)C1CC1 | – | – | – | 50% | 9.00 | – | Emax [3]: < 25%; pEC50 [4]: ≤ 7.00 |
| C[C@H](NC(=O)Cn1nc2ccc(C3CC3)nn2c1=O)c1ccc(Cl)c(F)c1 | – | 50% | 9.00 | > 80% | – | – | pEC50 [1]: > 9.00 |

| Compound | Emax ([2]; filed as agonist) | Emax ([3]; filed as agonist) | pEC50 ([4]; cho-k1) | Emax ([6]; filed as agonist) | pEC50 ([1]; cho-k1) | pEC50 ([5]; cho-k1) | further results |
| --- | --- | --- | --- | --- | --- | --- | --- |
| CC(C(=O)N[C@@H](C)c1ccc(Cl)c(F)c1)n1nc2ncccn2c1=O (stereo in doubt; form 1) [listing 2 of 2 here] | 50% | 50% | – | > 80% | – | – | – |
| CC(C(=O)N[C@@H](C)c1ccc(Cl)c(F)c1)n1nc2cccnn2c1=O (stereo in doubt; I-6-2) [listing 2 of 2 here] | > 80% | 50% | – | > 80% | – | – | – |
| CNc1ccnn2c(=O)n(CC(=O)N[C@@H](C)c3ccc(Cl)c(F)c3)nc12 | – | > 80% | 9.00 | > 80% | – | – | pEC50 [1]: > 9.00 |
| Cc1ccc([C@H](C)NC(=O)C(C)n2nc3ccccn3c2=O)cc1 (stereo in doubt; form 2) [listing 1 of 2 here] | > 80% | > 80% | – | > 80% | – | – | – |
| Cc1ccc([C@H](C)NC(=O)C(C)n2nc3ccccn3c2=O)cc1 (stereo in doubt; form 2) [listing 2 of 2 here] | – | – | – | – | – | – | pEC50 [4]: ≤ 7.00; pEC50 [5]: > 9.00 |
| CC(C(=O)N[C@@H](C)c1ccc(Cl)c(F)c1)n1nc2ncccn2c1=O (stereo in doubt; form 2) [listing 1 of 2 here] | – | – | 9.00 | – | – | – | pEC50 [5]: ≤ 7.00 |
| CC(C(=O)N[C@@H](C)c1ccc(Cl)c(F)c1)n1nc2ccccn2c1=O (stereo in doubt; form 1) [listing 2 of 2 here] | – | – | – | – | – | – | pEC50 [1]: > 9.00; pEC50 [4]: > 9.00; pEC50 [5]: > 9.00 |
| CC(C(=O)N[C@@H](C)c1ccc(Cl)c(F)c1)n1nc2ncccn2c1=O (stereo in doubt; form 2) [listing 2 of 2 here] | – | 50% | – | > 80% | – | – | Emax [2]: 25% |
| CC(C(=O)N[C@@H](C)c1ccc(Cl)c(F)c1)n1nc2ccccn2c1=O (stereo in doubt; form 2) [listing 2 of 2 here] | – | – | 8.00 | – | 9.00 | 9.00 | – |
| C[C@H](NC(=O)Cn1nc2c(NC3COC3)nccn2c1=O)c1ccc(Cl)c(F)c1 | 50% | – | – | > 80% | 9.00 | 9.00 | – |
| C[C@H](NC(=O)Cn1nc2ccccn2c1=O)c1ccc(-c2ccccc2)cc1 | – | – | – | – | 8.00 | – | Emax [3]: < 25%; pEC50 [4]: ≤ 7.00; Emax [6]: 25% |
| Cc1ccc([C@H](C)NC(=O)Cn2nc3c(Cl)cccn3c2=O)cc1 | 50% | – | – | > 80% | 9.00 | – | pEC50 [5]: > 9.00 |
| C[C@H](NC(=O)Cn1nc2c(N3CCOCC3)ccnn2c1=O)c1ccc(Cl)c(F)c1 | – | > 80% | – | > 80% | – | – | pEC50 [1]: > 9.00; pEC50 [4]: ≤ 7.00 |
| C[C@H](NC(=O)Cn1nc2cc(I)ccn2c1=O)c1ccc(Cl)c(F)c1 | > 80% | – | – | > 80% | – | – | pEC50 [1]: > 9.00; pEC50 [5]: > 9.00 |
| COc1ccn2c(=O)n(CC(=O)N[C@@H](C)c3ccc(Cl)cc3)nc2n1 | 50% | – | – | > 80% | 9.00 | 9.00 | – |
| C[C@H](NC(=O)Cn1nc2ccccn2c1=O)c1ccc(OC(F)F)c(F)c1 | 50% | – | – | > 80% | 9.00 | 9.00 | – |
| C[C@H](NC(=O)Cn1nc2cccnn2c1=O)c1ccc(C2CC2)cc1 | 50% | – | – | 50% | 8.00 | 8.00 | – |
| C[C@H](NC(=O)Cn1nc2ncccn2c1=O)c1ccc(OC(F)F)c(F)c1 | – | – | – | > 80% | 8.00 | – | Emax [2]: 25%; pEC50 [5]: ≤ 7.00 |
| CC(C(=O)N[C@@H](C)c1ccc(Cl)c(F)c1)n1nc2cccnn2c1=O (stereo in doubt; I-6-1) [listing 2 of 2 here] | 50% | – | – | > 80% | – | – | Emax [3]: 25% |
